In US6159940A, “Method for modulating hemopoiesis” (Immunotech Developments Inc., priority 1999, dated 2000):

Key:
[1] = Local irritating effect, rabbits; type: in vivo
Text: (§1) The local irritating effect of H-Ile-Glu-Trp-OH was studied in 20 guinea pigs and 5 rabbits.

CFU-S [2] = experiment: Reconstitution of CFU-S and nucleated cells in irradiated mice (4 Gy), i.v. versus i.m.; type: in vivo
Protocol: A further study of the effect of the peptide, using different methods of administration, on the dynamics of reconstitution of CFU-S, Nucleated blood Cells (NC) in the femoral bone marrow and peritheric blood (mm) of irradiated mice (4 Gy) was conducted.
Donor mice were irradiated with γ-rays in the dose of 4 Gy. Then they received the petide i.v. or i.m. 1, 2, 3, or 4 times, once a day, starting from the 1 first hour of the 3rd day after the irradiation (10 μg/kg per injection). […] At different intervals after the irradiation 10 mice were taken from each group to determine CFU-S in the bone marrow. The mice were killed, cell suspensions were prepared from the bone marrow and injected to lethally irradiated recipients. NC were counted in the femoral bone marrow and peritheric blood, and the lymphocyte percentage was found.

Effect on liver function = type: in vivo, rabbits; conditions: 0.01% solution for 30 days
Protocol: The tests were performed in 20 rabbits, who received injections of 0.01% H-Ile-Glu-Trp-OH solution for 30 days.

[3] = test system: lymphocytes in guinea pigs; experiment: E-rosette formation test after trypsin treatment; type: cell-based
Text: The biological action of the novel peptide was studied in guinea pigs in the conventional E-rosette formation test.

[4] = Local irritating effect, guinea pigs; type: in vivo
Text: as §1

[5] = Chronic toxicity: peritheric blood and internals, 30 days, guinea pigs; type: in vivo; conditions: once daily for 30 days
Protocol: (§2) II.1 The H-Ile-Glu-Trp-OH effect on the composition and properties of the peritheric blood, the morphological state of the internals.
(§3) The drug was injected once daily for 30 days.
(§4) The test animals were 20 rabbits and 40 guinea pigs.

tumor cells EL-4 = experiment: Thymoma EL-4 cells incubated with peptide and heated, transplanted to mice: tumor size; type: in vivo, C57B1 mice; conditions: for Tumor size: EL-4, 13th day
Protocol: Incubation of the tumor cells with the tested drugs were performed the same way as described above in the experiments with OU. After 18-hour incubation, the cells were washed in the medium RPMI, and then resuspended in the concentration of 5 ml/1 ml in plastic test tubes of total volume of 2 ml each. Then the cells were heated for 1 hour at 43 degrees Celsius, and transplanted under the back skin of the mice C57B1. The growth of the tumor was examined the same way as described above.

[6] = Observation during study of specific and general pharmacological activity; type: in vivo, mice, guinea pigs, rats, rabbits; conditions: during the study and 1-6 month observation period
Protocol: In the study of specific and general pharmacological activity, the test animals were mice, guinea pigs, rats, rabbits. Some tests were performed using lymphocyte or monocyte cultures of the peritheric blood of donors and patients with different diseases accompanied by immunity disorders.

CFU-S [7] = experiment: Spleen colony formation from RAMBS-treated bone marrow in lethally irradiated mice; type: in vivo, (CBA×C57BL)F1 female mice
Text: (CBA×C57BL)F1 female mice (n=2500), 2-months old, weighing about 20 g, were used in the experiment.
As is known, there is a close relationship between T-cells and hemopoietic progenitors. It was shown that, along with colony-forming units of spleen (CFU-S), thymocytes participate in colony formation of spleens of irradiated mice by controlling proliferation of the hemopoietic progenitor cells. The fact was established in a test system, which allowed a selective removal of accessory T-cells from bone marrow with the help of rabbit antimouse brain antiserum (RAMBS) and their substitution with other factors. Aliquots (0.1 ml) of bone marrow suspension (2×10^7 cells), RAMBS, and medium 199 were mixed and incubated for 1 hour at 37° C. Then the cells were washed with centrifuging, resuspended and injected to lethally irradiated mice.
According to the aforesaid scheme, instead of thymocytes mice received the peptide, H-Ile-Glu-Trp-OH injections 30 minutes before the injections of RAMBS-treated bone marrow suspension.

[8] = Effect on arterial pressure, cats; type: in vivo
Text: The effects of H-Ile-Glu-Trp-OH on ECG and arterial pressure were studied in guinea pigs and cats.
The influence of H-Ile-Glu-Trp-OH on arterial pressure was studied in 10 cats.

Acute toxicity in dogs = type: in vivo; conditions: 6 dogs
Protocol: To establish the safety of use of the peptides, toxicity tests were performed. Toxicity tests where performed in accordance Pharmacological Committee Russian Federation (RF) "guidelines for the pre-clinical study of general toxic activity of new pharmacological compounds". M., 1985.
Acute toxicity was studied in 20 guinea pigs and 6 dogs. […] The drug has a wide therapeutic range.

[9] = Chronic toxicity: peritheric blood and internals, 30 days, rabbits; type: in vivo; conditions: once daily for 30 days
Protocol: as §2, §3, §4

[10] = test system: karyocytes in femoral bone marrow; experiment: Bone marrow regeneration in irradiated mice (4 Gy), scheme 2; type: in vivo
Protocol: Irradiated mice (4 Gy) received intramuscular injections of the peptide in the dose of 10 μg/kg according to 2 schemes.
b) According to scheme 2, the peptide injections were made starting from the 3rd day after the irradiation, at the same time of maximum depletion of the pool of mature nucleated cells and the bone marrow. The groups of mice were formed in the same way as in the previous scheme. […] Tables 9 and 10 present the data on karyocyte and lymphocyte counts in blood (per 1 mm^3) of mice treated according to scheme 2.
The data in Table 11 reflect the process of bone marrow regeneration in control and test irradiated (4 Gy) mice treated with peptide according to scheme 2. The regeneration was equally intensive in all animal groups till the 11th day, from day 14 to day 18 the nucleated cells counts were considerably higher in the bone marrow of test mice.

[11] = Effect on kidney function (anti-diuretic activity); design: species or system white mice; conditions: mouse, in vivo
Text: The anti-diuretic activity of H-Ile-Glu-Trp-OH was studied in 40 white mice.

Substance: H-Ile-Glu-Trp-OH
- local irritating effect [1]: no local irritating effect
- NC content in the bone marrow (CFU-S [2]; IM 10 μg/kg): no effect
- reconstitution of the CFU-S pool (CFU-S [2]; IM 10 μg/kg (especially 1, 2, 3 times)): positively influenced the reconstitution of the CFU-S pool earlier, beginning from day 8
- reconstitution of the CFU-S pool (CFU-S [2]; i.v. 10 μg/kg 1, 3, or 4 times): helped better reconstitution of the CFU-S pool by day 14 only
- liver function (Effect on liver function): not to have any toxic effect on the liver function
- in vitro activity relative to other known compounds [3]: 10^3 times
- E-rosette formation after treatment with trypsin and compound ([3]; 10^-6 mg/ml): 61.4
- E-rosette formation after treatment with trypsin and compound ([3]; 10^-7 mg/ml): 63.9
- E-rosette formation after treatment with trypsin and compound ([3]; 10^-8 mg/ml): 64.8
- E-rosette formation after treatment with trypsin and compound ([3]; 10^-9 mg/ml): 60.2
- E-rosette formation after treatment with trypsin and compound ([3]; 10^-10 mg/ml): 37.5
- E-rosette formation after treatment with trypsin and compound ([3]; 10^-11 mg/ml): 40.0
- E-rosette formation after treatment with trypsin and compound ([3]; 10^-12 mg/ml): 34.3
- local irritating effect [4]: no local irritating effect
- pathologic changes in the body or peritheric blood [5]: did not cause any pathologic changes
- Tumor size (tumor cells EL-4; + Heating (1 hour at 43 degrees Celsius)): No Tumor
- Tumor size (tumor cells EL-4; no heating): 188.7 mm squared
- tumor formation (tumor cells EL-4; in vitro treatment followed by heating, 21st day): no tumor formation was observed
- toxic or allergic reactions [6]: no toxic or allergic reactions were observed
- Average Colony Count (CFU-S [7]; RAMBS-treated bone marrow + preparation, lethally irradiated mice): 6,3 ± 0,4
- increase of colony yields as compared to RAMBS-treated bone marrow (CFU-S [7]; mouse, in vivo): 2-3 times
- ECG readings and arterial pressure [8]: No significant difference from control
- acute toxicity (Acute toxicity in dogs): No toxic effects were observed
- pathologic changes in the body or peritheric blood [9]: did not cause any pathologic changes
- Karyocyte Count in Femoral Bone Marrow ([10]; scheme 2, 1 Time, Day 7): 16.4 ± 0.3 × 10^6
- Karyocyte Count in Femoral Bone Marrow ([10]; scheme 2, 1 Time, Day 11): 17.9 ± 1.8 × 10^6
- Karyocyte Count in Femoral Bone Marrow ([10]; scheme 2, 1 Time, Day 14): 18.7 ± 1.1 × 10^6
- Karyocyte Count in Femoral Bone Marrow ([10]; scheme 2, 1 Time, Day 18): 18.0 ± 0.4 × 10^6
- Karyocyte Count in Femoral Bone Marrow ([10]; scheme 2, 1 Time, Day 21): 22.4 ± 2.2 × 10^6
- Karyocyte Count in Femoral Bone Marrow ([10]; scheme 2, 2 Times, Day 7): 14.9 ± 1.7 × 10^6
- Karyocyte Count in Femoral Bone Marrow ([10]; scheme 2, 2 Times, Day 11): 18.6 ± 2.3 × 10^6
- Karyocyte Count in Femoral Bone Marrow ([10]; scheme 2, 2 Times, Day 14): 14.1 ± 1.7 × 10^6
- Karyocyte Count in Femoral Bone Marrow ([10]; scheme 2, 2 Times, Day 18): 17.2 ± 1.0 × 10^6
- Karyocyte Count in Femoral Bone Marrow ([10]; scheme 2, 2 Times, Day 21): 18.9 ± 0.6 × 10^6
- Karyocyte Count in Femoral Bone Marrow ([10]; scheme 2, 3 Times, Day 7): 12.25 ± 1.3 × 10^6
- Karyocyte Count in Femoral Bone Marrow ([10]; scheme 2, 3 Times, Day 11): 18.5 ± 2.9 × 10^6
- Karyocyte Count in Femoral Bone Marrow ([10]; scheme 2, 3 Times, Day 14): 16.9 ± 0.8 × 10^6
- Karyocyte Count in Femoral Bone Marrow ([10]; scheme 2, 3 Times, Day 18): 16.9 ± 0.8 × 10^6
- Karyocyte Count in Femoral Bone Marrow ([10]; scheme 2, 3 Times, Day 21): 19.5 ± 1.6 × 10^6
- Karyocyte Count in Femoral Bone Marrow ([10]; scheme 2, 4 Times, Day 11): 20.3 ± 1.3 × 10^6
- Karyocyte Count in Femoral Bone Marrow ([10]; scheme 2, 4 Times, Day 14): 18.9 ± 0.2 × 10^6
- Karyocyte Count in Femoral Bone Marrow ([10]; scheme 2, 4 Times, Day 18): 17.7 ± 1.2 × 10^6
- Karyocyte Count in Femoral Bone Marrow ([10]; scheme 2, 4 Times, Day 21): 20.0 ± 1.8 × 10^6
- anti-diuretic activity [11]: not to have any anti-diuretic activity
